The source of these data is patent US20240376121A1, “COMPOUNDS AND USES THEREOF” (Foghorn Therapeutics Inc., priority 2021, published 2024).

Bounds are passed on as bounds.

The target in test [1] is T1, HiBit-BRM fusion protein (Homo sapiens, UniProt P51531).
T1 construct: expressed in transfected cells
Kind of test: HiBiT-BRM cell-based degradation assay (Nano-Glo HiBiT Lytic Detection). The settings on record: stable HeLa cell line expressing HiBiT-BRM, 24 h incubation; for BRM HiBit Degradation Maximum (%): top dose 30 μM; for DC50: read-out: BRM HiBit Degradation IC50. The method in brief:
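Percent BRM loss was derived from HiBiT luminescence relative to DMSO-treated cells and cells given 2 μM of a known BRM/BRG1 degrader. Treatment lasted 24 h in HiBiT-BRM HeLa cells, with a top final concentration of 30 μM.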

In test [2] the target is T2, HiBit-BRG1 fusion protein (Homo sapiens, UniProt P51532).
T2 construct: expressed in transfected cells
Kind of test: HiBiT-BRG1 cell-based degradation assay (Nano-Glo HiBiT Lytic Detection). The conditions noted are these: stable HeLa cell line expressing HiBit-BRG1 and LgBit, 24 h incubation; for Dmax: top dose 30 μM, read-out: BRG1 HiBit Degradation Maximum (%); for DC50: read-out: BRMG1 HiBit Degradation IC50. In outline: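 Degradation was scored from HiBiT lytic luminescence, scaled between DMSO-treated wells and wells given 2 μM of a standard BRM/BRG1 degrader. Cells were a stable HeLa HiBiT-BRG1/LgBiT line dosed for 24 h, ten concentrations in 3-fold steps from 30 μM, in duplicate.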

T2 sequence (P51532 whole entry, the tested form may be a part): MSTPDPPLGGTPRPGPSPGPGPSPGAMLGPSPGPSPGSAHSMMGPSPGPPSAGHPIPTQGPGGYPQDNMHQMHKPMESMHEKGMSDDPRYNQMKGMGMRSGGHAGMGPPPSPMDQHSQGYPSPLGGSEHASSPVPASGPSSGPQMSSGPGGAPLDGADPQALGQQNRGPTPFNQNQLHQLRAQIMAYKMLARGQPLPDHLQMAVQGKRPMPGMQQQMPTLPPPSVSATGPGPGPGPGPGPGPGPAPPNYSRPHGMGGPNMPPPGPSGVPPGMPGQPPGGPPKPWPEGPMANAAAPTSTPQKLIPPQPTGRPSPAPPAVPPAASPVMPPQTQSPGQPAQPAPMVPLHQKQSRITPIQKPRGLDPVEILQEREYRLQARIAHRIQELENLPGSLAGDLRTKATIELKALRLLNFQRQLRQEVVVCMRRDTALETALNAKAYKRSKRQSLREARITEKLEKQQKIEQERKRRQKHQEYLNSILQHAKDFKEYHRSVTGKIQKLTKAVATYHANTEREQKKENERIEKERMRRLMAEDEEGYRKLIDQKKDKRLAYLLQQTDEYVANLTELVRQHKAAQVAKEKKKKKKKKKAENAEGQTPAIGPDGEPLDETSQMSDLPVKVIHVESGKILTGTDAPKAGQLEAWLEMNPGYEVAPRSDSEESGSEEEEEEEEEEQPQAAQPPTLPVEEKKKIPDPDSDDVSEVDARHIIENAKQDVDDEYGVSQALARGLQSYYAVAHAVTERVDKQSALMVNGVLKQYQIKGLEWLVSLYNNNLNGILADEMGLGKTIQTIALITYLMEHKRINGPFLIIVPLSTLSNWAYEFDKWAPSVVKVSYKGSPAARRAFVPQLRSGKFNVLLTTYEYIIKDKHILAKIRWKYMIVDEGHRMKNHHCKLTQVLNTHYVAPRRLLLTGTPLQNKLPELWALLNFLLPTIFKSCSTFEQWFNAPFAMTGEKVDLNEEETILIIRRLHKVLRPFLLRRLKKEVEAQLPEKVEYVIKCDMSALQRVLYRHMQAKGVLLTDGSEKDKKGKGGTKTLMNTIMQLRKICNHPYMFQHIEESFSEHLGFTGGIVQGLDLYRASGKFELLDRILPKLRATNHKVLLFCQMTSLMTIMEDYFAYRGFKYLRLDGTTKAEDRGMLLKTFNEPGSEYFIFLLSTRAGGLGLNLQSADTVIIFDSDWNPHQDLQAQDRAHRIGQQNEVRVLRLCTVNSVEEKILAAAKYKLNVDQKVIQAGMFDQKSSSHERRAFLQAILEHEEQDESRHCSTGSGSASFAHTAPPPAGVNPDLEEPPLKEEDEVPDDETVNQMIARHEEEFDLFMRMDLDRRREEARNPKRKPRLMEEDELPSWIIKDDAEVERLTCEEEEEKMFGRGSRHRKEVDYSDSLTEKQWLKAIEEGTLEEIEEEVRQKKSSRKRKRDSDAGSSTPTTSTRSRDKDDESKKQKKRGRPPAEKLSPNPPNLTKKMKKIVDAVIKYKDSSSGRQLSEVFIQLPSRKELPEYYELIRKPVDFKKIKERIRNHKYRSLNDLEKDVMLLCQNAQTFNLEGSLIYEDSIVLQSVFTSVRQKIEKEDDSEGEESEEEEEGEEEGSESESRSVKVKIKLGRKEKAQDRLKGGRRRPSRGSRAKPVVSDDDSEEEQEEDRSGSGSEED
T1 sequence (P51531 whole entry, the tested form may be a part): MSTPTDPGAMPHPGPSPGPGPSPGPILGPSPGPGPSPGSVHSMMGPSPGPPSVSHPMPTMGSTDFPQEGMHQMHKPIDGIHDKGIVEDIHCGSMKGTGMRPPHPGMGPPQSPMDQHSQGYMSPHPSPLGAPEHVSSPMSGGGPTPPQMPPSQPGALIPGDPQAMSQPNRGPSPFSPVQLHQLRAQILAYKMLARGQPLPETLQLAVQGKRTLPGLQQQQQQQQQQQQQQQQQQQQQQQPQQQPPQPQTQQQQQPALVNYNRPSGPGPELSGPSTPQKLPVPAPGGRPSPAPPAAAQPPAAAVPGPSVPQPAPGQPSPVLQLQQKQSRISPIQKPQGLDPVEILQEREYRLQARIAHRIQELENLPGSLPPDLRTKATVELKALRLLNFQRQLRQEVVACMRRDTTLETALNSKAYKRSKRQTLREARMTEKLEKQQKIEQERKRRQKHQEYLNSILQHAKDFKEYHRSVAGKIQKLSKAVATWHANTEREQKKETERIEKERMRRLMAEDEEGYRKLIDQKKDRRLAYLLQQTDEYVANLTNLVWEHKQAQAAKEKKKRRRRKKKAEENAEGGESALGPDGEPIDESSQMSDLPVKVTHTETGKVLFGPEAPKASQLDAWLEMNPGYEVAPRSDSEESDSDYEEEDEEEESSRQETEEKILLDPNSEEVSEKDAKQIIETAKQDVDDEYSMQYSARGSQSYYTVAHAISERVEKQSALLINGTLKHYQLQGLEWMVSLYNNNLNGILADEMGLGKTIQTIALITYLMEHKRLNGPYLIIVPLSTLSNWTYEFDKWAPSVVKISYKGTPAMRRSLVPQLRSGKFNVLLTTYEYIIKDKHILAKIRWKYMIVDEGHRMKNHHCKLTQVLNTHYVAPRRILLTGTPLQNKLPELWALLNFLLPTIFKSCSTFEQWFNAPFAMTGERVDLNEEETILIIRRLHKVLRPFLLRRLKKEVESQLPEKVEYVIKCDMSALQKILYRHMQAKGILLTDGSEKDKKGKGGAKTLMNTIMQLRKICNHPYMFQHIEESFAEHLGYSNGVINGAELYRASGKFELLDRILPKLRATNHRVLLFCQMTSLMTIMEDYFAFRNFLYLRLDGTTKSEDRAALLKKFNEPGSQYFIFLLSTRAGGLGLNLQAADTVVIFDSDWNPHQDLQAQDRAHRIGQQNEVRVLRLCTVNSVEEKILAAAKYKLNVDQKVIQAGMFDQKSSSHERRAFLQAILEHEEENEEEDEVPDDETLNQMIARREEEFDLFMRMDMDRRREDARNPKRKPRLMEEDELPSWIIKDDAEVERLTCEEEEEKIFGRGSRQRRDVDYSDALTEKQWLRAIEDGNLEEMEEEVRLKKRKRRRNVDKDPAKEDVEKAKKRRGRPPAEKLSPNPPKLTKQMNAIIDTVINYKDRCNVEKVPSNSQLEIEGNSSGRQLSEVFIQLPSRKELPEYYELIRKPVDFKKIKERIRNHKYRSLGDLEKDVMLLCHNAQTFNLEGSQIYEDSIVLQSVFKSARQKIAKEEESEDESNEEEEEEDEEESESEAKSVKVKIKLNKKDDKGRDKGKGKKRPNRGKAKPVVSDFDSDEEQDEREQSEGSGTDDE

In the case of `Cc1ncsc1-c1ccc(CNC(=O)[C@@H]2C[C@@H](O)CN2C(=O)[C@@H](NC(=O)[C@H]2CC[C@H](c3cnc(N4CCC(c5sc6nnc(-c7ccccc7O)cc6c5C)CC4)nc3)CC2)C(C)(C)C)cc1` [Compound 85, (2S,4R)-4-hydroxy-1-((S)-2-((1r,4S)-4-(2-(4-(3-(2-hydroxyphenyl)-5-methylthieno[2,3-c]pyridazin-6-yl)piperidin-1-yl)pyrimidin-5-yl)cyclohexane-1-carboxamido)-3,3-dimethylbutanoyl)-N-(4-(4-methylthiazol-5-yl)benzyl)pyrrolidine-2-carboxamide], in test [1], the “BRM HiBit Degradation Maximum (%)” value was “A (“A” indicates maximum degradation ≥ 75%)” and the DC50 is no less than 10 nM. Moreover, in test [2], the Dmax was no less than 75% and the DC50 is no less than 100 nM.

Regarding `Cc1ncsc1-c1ccc([C@H](C)NC(=O)[C@@H]2C[C@@H](O)CN2C(=O)[C@@H](c2cc(C3CCN(C(=O)[C@H]4CCc5sc6nnc(-c7ccccc7O)cc6c5C4)CC3)no2)C(C)C)cc1` [Compound 47, (2S,4R)-4-hydroxy-1-((R)-2-(3-(1-((S)-3-(2-hydroxyphenyl)-5,6,7,8-tetrahydrobenzo[4,5]thieno[2,3-c]pyridazine-6-carbonyl)piperidin-4-yl)isoxazol-5-yl)-3-methylbutanoyl)-N-((S)-1-(4-(4-methylthiazol-5-yl)phenyl)ethyl)pyrrolidine-2-carboxamide], in test [1], the “BRM HiBit Degradation Maximum (%)” value is “A (“A” indicates maximum degradation ≥ 75%)” and the DC50 is no less than 100 nM. For the same compound, in test [2], the Dmax was less than 50% and the DC50 was no less than 1000 nM.

Take `Cc1ncsc1-c1ccc(CNC(=O)[C@@H]2C[C@@H](O)CN2C(=O)[C@@H](NC(=O)CCC(=O)N2CC(c3cc4cc(-c5ccccc5O)nnc4s3)C2)C(C)(C)C)cc1` [Compound 25]: in test [1], the “BRM HiBit Degradation Maximum (%)” value is “C (“C” indicates maximum degradation < 50%)” and the DC50 is no less than 1000 nM. In test [2], the Dmax is less than 50% and the DC50 is no less than 1000 nM.

Consider `Cc1ncsc1-c1ccc([C@H](C)NC(=O)[C@@H]2C[C@@H](O)CN2C(=O)[C@@H](c2cc([C@H]3CC[C@H](N4CCC(c5sc6nnc(-c7ccccc7O)cc6c5C)CC4)CC3)no2)C(C)C)cc1` [Compound 38, (2S,4R)-4-hydroxy-1-((R)-2-(3-((1r,4R)-4-(4-(3-(2-hydroxyphenyl)-5-methylthieno[2,3-c]pyridazin-6-yl)piperidin-1-yl)cyclohexyl)isoxazol-5-yl)-3-methylbutanoyl)-N-((S)-1-(4-(4-methylthiazol-5-yl)phenyl)ethyl)pyrrolidine-2-carboxamide], for which, in test [1], the “BRM HiBit Degradation Maximum (%)” value is recorded as “A (“A” indicates maximum degradation ≥ 75%)” and the DC50 is no less than 100 nM. For the same compound, in test [2], the Dmax is less than 50% and the DC50 is no less than 1000 nM.

For `Cc1ncsc1-c1ccc(CNC(=O)[C@@H]2C[C@@H](O)CN2C(=O)[C@@H](NC(=O)CCCC(=O)N2CCC(c3cc4cc(-c5ccccc5O)nnc4s3)CC2)C(C)(C)C)cc1` [Compound 28], in test [1], the “BRM HiBit Degradation Maximum (%)” value is “B (“B” indicates maximum degradation ≥ 50%)” and the DC50 is no less than 1000 nM. Also, in test [2], the Dmax was less than 50% and the DC50 is no less than 1000 nM.

For `Cc1ncsc1-c1ccc([C@H](C)NC(=O)[C@@H]2C[C@@H](O)CN2C(=O)[C@H](c2cc(N3CCC(CN4CC(c5cc6cc(-c7ccccc7O)nnc6s5)C4)CC3)no2)C(C)C)cc1` [Compound 33], in test [1], the “BRM HiBit Degradation Maximum (%)” value is recorded as “C (“C” indicates maximum degradation < 50%)” and the DC50 was no less than 1000 nM. Besides, in test [2], the Dmax is less than 50% and the DC50 is no less than 1000 nM.

As for `Cc1ncsc1-c1ccc([C@H](C)NC(=O)[C@@H]2C[C@@H](O)CN2C(=O)[C@@H](c2cc(OCC(=O)N3CCc4sc5nnc(-c6ccccc6O)cc5c4C3)no2)C(C)C)cc1` [Compound 91, (2S,4R)-4-hydroxy-1-((R)-2-(3-(2-(3-(2-hydroxyphenyl)-7,8-dihydropyrido[3′,4′:4, 5]thieno[2,3-c]pyridazin-6(5H)-yl)-2-oxoethoxy)isoxazol-5-yl)-3-methylbutanoyl)-N-((S)-1-(4-(4-methylthiazol-5-yl)phenyl)ethyl)pyrrolidine-2-carboxamide], in test [1], the “BRM HiBit Degradation Maximum (%)” value is listed as “C (“C” indicates maximum degradation < 50%)” and the DC50 was no less than 1000 nM. Besides, in test [2], the Dmax is less than 50% and the DC50 was no less than 1000 nM.

For the compound `Cc1ncsc1-c1ccc(CNC(=O)[C@@H]2C[C@@H](O)CN2C(=O)[C@@H](NC(=O)C2(F)CC2)C(C)(C)C)c(OCCN2CCC(c3sc4nnc(-c5ccccc5O)cc4c3C)CC2)c1` [Compound 83, (2S,4R)-1-((S)-2-(1-fluorocyclopropane-1-carboxamido)-3,3-dimethylbutanoyl)-4-hydroxy-N-(2-(2-(4-(3-(2-hydroxyphenyl)-5-methylthieno[2,3-c]pyridazin-6-yl)piperidin-1-yl)ethoxy)-4-(4-methylthiazol-5-yl)benzyl)pyrrolidine-2-carboxamide], in test [1], the “BRM HiBit Degradation Maximum (%)” value was “C (“C” indicates maximum degradation < 50%)” and the DC50 was no less than 1000 nM. In test [2], the Dmax was less than 50% and the DC50 is no less than 1000 nM.

With `Cc1ncsc1-c1ccc(CNC(=O)[C@@H]2C[C@@H](O)CN2C(=O)[C@@H](NC(=O)CCCC(=O)N2CCC(c3cc4nnc(-c5ccccc5O)cc4s3)CC2)C(C)(C)C)cc1` [Compound 80, (2S,4R)-4-hydroxy-1-((S)-2-(5-(4-(3-(2-hydroxyphenyl)thieno[3,2-c]pyridazin-6-yl)piperidin-1-yl)-5-oxopentanamido)-3,3-dimethylbutanoyl)-N-(4-(4-methylthiazol-5-yl)benzyl)pyrrolidine-2-carboxamide], in test [1], the “BRM HiBit Degradation Maximum (%)” value is listed as “B (“B” indicates maximum degradation ≥ 50%)” and the DC50 is no less than 100 nM. In addition, in test [2], the Dmax was less than 50% and the DC50 is no less than 1000 nM.

In the case of `Cc1ncsc1-c1ccc([C@H](C)NC(=O)[C@@H]2C[C@@H](O)CN2C(=O)[C@@H](c2cc(N3C[C@@H]4C[C@H]3CN4C(=O)[C@H]3CCc4sc5nnc(-c6ccccc6O)cc5c4C3)no2)C(C)C)cc1` [Compound 43, (2S,4R)-4-hydroxy-1-((R)-2-(3-((1S,4S)-5-((S)-3-(2-hydroxyphenyl)-5,6,7,8-tetrahydrobenzo[4,5]thieno[2,3-c]pyridazine-6-carbonyl)-2,5-diazabicyclo[2.2.1]heptan-2-yl)isoxazol-5-yl)-3-methylbutanoyl)-N-((S)-1-(4-(4-methylthiazol-5-yl)phenyl)ethyl)pyrrolidine-2-carboxamide], in test [1], the “BRM HiBit Degradation Maximum (%)” value is “C (“C” indicates maximum degradation < 50%)” and the DC50 was no less than 1000 nM. In test [2], the Dmax is less than 50% and the DC50 was no less than 1000 nM.

Regarding `Cc1ncsc1-c1ccc([C@H](C)NC(=O)[C@@H]2C[C@@H](O)CN2C(=O)[C@@H](c2cc(OCCCN3CC(c4cc5nnc(-c6ccccc6O)cc5s4)C3)no2)C(C)C)cc1` [Compound 104, (2S,4R)-4-hydroxy-1-((R)-2-(3-(3-(3-(3-(2-hydroxyphenyl)thieno[3,2-c]pyridazin-6-yl)azetidin-1-yl)propoxy)isoxazol-5-yl)-3-methylbutanoyl)-N-((S)-1-(4-(4-methylthiazol-5-yl)phenyl)ethyl)pyrrolidine-2-carboxamide], in test [1], the “BRM HiBit Degradation Maximum (%)” value is on record as “B (“B” indicates maximum degradation ≥ 50%)” and the DC50 was no less than 10 nM. In test [2], the Dmax is less than 50% and the DC50 is no less than 1000 nM.

In the case of `Cc1ncsc1-c1ccc([C@H](C)NC(=O)[C@@H]2C[C@@H](O)CN2C(=O)[C@@H](c2cc(C34CC(C(=O)N5CCC(c6sc7nnc(-c8ccccc8O)cc7c6C)CC5)(C3)C4)no2)C(C)C)cc1` [Compound 64, (2S,4R)-4-hydroxy-1-((R)-2-(3-(3-(4-(3-(2-hydroxyphenyl)-5-methylthieno[2,3-c]pyridazin-6-yl)piperidine-1-carbonyl)bicyclo[1.1.1]pentan-1-yl)isoxazol-5-yl)-3-methylbutanoyl)-N-((S)-1-(4-(4-methylthiazol-5-yl)phenyl)ethyl)pyrrolidine-2-carboxamide], in test [1], the “BRM HiBit Degradation Maximum (%)” value is reported as “A (“A” indicates maximum degradation ≥ 75%)” and the DC50 is less than 10 nM. For the same compound, in test [2], the Dmax is no less than 75% and the DC50 is less than 10 nM.

For the compound `Cc1ncsc1-c1ccc([C@H](C)NC(=O)[C@@H]2C[C@@H](O)CN2C(=O)[C@H](c2cc(N3CCC(C(=O)N4CC(c5cc6cc(-c7ccccc7O)nnc6s5)C4)CC3)no2)C(C)C)cc1` [Compound 4, (2S,4R)-4-hydroxy-1-((S)-2-(3-(4-(3-(3-(2-hydroxyphenyl)thieno[2,3-c]pyridazin-6-yl)azetidine-1-carbonyl)piperidin-1-yl)isoxazol-5-yl)-3-methylbutanoyl)-N—((S)-1-(4-(4-methylthiazol-5-yl)phenyl)ethyl)pyrrolidine-2-carboxamide], in test [1], the “BRM HiBit Degradation Maximum (%)” value was “C (“C” indicates maximum degradation < 50%)” and the DC50 was no less than 1000 nM. In addition, in test [2], the Dmax is less than 50% and the DC50 is no less than 1000 nM.
